Assay results published in US20110288086A1, “POLYCYCLIC QUINAZOLINES, PREPARATION THEREOF, AND USE THEREOF” (priority 2010, published 2011).

Columns and labels:
aurora kinase B = molecular target: T1, aurora kinase B (Homo sapiens, UniProt Q96GD4); test: Aurora kinase B inhibition in vitro (Invitrogen aurora kinase screening kit PV3174); format: biochemical
T1 construct: purchased Invitrogen PV3174

EGFR tyrosine kinase = EGFR tyrosine kinase (Homo sapiens, UniProt P00533); test: EGFR tyrosine kinase inhibition in vitro (Invitrogen EGFR inhibitor screening kit PV3193)
Description: The inhibitory activities of EGFR tyrosine kinase in vitro
Erlotinib hydrochloride was used as a positive control drug.

[1] = system: Colo320 human rectal cancer cells; test: Tumor cell inhibition ratio, CCK-8 kit, Colo320; conditions: COLO 320, read-out: Antiproliferative effect (inhibition ratio) Colo320
Description: (§1) The inhibitory activities of the compounds on tumor cells in vitro

[2] = system: PANC-1 human pancreatic cancer cells; test: Tumor cell inhibition ratio, CCK-8 kit, PANC-1; conditions: PANC-1, read-out: Antiproliferative effect (inhibition ratio) PANC-1
Description: as §1

[3] = system: A549 human lung cancer cells; test: Tumor cell inhibition ratio, CCK-8 kit, A549; conditions: A549, read-out: Antiproliferative effect (inhibition ratio) A549
Description: as §1

[4] = system: K562 human chronicity marrow leukemic cells; test: Tumor cell inhibition ratio, CCK-8 kit, K562; conditions: K562, read-out: Antiproliferative effect (inhibition ratio) K562
Description: as §1

[5] = system: Jurkat E6-1 human T-cell lymphoma; test: Tumor cell inhibition ratio, CCK-8 kit, Jurkat E6-1; conditions: Jurkat E6.1, read-out: Antiproliferative effect (inhibition ratio) E6-1
Description: as §1

[6] = system: MDA-MB-435s human breast carcinoma cells; test: Tumor cell inhibition ratio, CCK-8 kit, MDA-MB-435s; conditions: read-out: Antiproliferative effect (inhibition ratio) 435s
Description: as §1

[7] = system: Hep3B2.1-7 human hepatoma carcinoma cells; test: Tumor cell inhibition ratio, CCK-8 kit, Hep3B; conditions: read-out: Antiproliferative effect (inhibition ratio) Hep3B
Description: as §1

[8] = system: Hut78 T-Lymphocytic Leukemia cells; test: Tumor cell inhibition ratio, CCK-8 kit, Hut78; conditions: Homo sapiens, HuT78, read-out: Antiproliferative effect (inhibition ratio) Hut-78
Description: as §1

[9] = system: PC-3 human carcinoma of prostate; test: Tumor cell inhibition ratio, CCK-8 kit, PC-3; conditions: read-out: Antiproliferative effect (inhibition ratio) PC-3
Description: as §1

T1 sequence (Q96GD4 whole entry): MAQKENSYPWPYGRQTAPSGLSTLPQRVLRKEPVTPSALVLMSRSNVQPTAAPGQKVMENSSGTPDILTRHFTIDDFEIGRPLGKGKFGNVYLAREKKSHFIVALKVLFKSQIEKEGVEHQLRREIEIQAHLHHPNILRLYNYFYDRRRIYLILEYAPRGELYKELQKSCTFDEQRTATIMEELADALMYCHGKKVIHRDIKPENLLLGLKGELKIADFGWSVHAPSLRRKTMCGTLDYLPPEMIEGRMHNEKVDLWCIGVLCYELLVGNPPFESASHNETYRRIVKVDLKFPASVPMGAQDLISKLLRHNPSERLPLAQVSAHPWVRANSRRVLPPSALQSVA
Chain of EGFR tyrosine kinase (P00533 25-1210): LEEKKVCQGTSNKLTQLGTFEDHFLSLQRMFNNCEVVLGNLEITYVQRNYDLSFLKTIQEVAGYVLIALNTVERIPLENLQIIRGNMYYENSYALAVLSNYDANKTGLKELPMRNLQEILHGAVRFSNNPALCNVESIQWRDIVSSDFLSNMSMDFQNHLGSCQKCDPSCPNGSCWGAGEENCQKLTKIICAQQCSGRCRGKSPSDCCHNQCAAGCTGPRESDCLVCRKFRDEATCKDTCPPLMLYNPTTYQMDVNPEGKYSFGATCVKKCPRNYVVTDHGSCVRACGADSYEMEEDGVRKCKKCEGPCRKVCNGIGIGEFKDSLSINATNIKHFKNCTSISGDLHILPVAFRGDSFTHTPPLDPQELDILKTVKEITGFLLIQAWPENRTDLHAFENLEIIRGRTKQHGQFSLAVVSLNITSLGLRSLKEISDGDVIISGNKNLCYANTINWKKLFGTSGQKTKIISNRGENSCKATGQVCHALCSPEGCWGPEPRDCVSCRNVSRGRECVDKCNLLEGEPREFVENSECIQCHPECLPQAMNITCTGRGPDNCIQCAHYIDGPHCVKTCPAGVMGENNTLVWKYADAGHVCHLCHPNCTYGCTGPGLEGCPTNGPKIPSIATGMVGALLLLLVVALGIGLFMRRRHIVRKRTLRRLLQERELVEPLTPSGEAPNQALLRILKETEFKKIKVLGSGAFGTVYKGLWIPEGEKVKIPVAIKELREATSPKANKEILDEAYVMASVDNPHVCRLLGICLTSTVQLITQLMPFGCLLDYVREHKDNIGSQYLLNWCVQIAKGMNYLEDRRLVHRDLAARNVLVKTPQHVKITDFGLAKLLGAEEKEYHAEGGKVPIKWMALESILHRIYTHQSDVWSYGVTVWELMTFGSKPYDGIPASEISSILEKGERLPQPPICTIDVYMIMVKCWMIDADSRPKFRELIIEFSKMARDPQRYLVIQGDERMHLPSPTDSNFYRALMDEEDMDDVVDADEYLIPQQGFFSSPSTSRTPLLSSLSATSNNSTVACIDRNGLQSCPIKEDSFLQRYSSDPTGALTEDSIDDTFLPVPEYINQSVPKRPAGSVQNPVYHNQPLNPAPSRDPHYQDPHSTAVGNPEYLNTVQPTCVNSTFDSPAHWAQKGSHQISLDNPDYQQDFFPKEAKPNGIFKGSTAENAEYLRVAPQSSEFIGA

| The inhibition ratio of the compound on Aurora B(%) (aurora kinase B; 40 μM) | The inhibition ratio of the compound on Aurora B(%) (aurora kinase B; 200 μM) | The inhibition ratio of the compound on EGFR(%) (EGFR tyrosine kinase; 40 μM) | The inhibition ratio of the compound on EGFR(%) (EGFR tyrosine kinase; 200 μM) | SMILES | inhibition at 10 µM [1] [%] | inhibition at 100 µM [1] [%] | inhibition at 10 µM [2] [%] | inhibition at 100 µM [2] [%] | inhibition at 10 µM [3] [%] | inhibition at 100 µM [3] [%] | inhibition at 10 µM [4] [%] | inhibition at 100 µM [4] [%] | inhibition at 10 µM [5] [%] | inhibition at 100 µM [5] [%] | inhibition at 10 µM [6] [%] | inhibition at 100 µM [6] [%] | inhibition at 10 µM [7] [%] | inhibition at 100 µM [7] [%] | inhibition at 10 µM [8] [%] | inhibition at 100 µM [8] [%] | also measured |
| --- | --- | --- | --- | --- | --- | --- | --- | --- | --- | --- | --- | --- | --- | --- | --- | --- | --- | --- | --- | --- | --- |
| 40.1 | 87.9 | 25.8 | 62.7 | COCCOc1cc2c(cc1OCCOC)C1=Nc3cccc(NC(=O)c4ccccc4)c3CN1C=N2 [Compound V-12, N-{2,3-bis(2-methoxyethoxy)-8H-quinazolino[4,3-b]quinazoline}benzamide] |  |  |  |  |  |  |  |  |  |  |  |  |  |  |  |  |  |
|  |  |  |  | COCCOc1cc2c(cc1OCCOC)C1=Nc3cc(CO)cc(N)c3CN1C=N2 [Compound V-21, 9-amino-11-hydroxymethyl-2,3-bis(2-methoxyethoxy)-8H-quinazolino[4,3-b]quinazoline] | 31.8 | 87 | 52.7 | 89.4 | 45.3 | 78 | 26.9 | 81.6 | 43.5 | 90.3 | 67 | 74.9 | 21.8 | 86.3 | 10.3 | 52.7 | inhibition at 10 µM [9]: 27.6%; inhibition at 100 µM [9]: 62.6% |
|  |  |  |  | COc1cc2c(cc1OCCCN1CCOCC1)C1=Nc3ccc(F)c(Cl)c3CN1C=N2 [Compound V-23, 4-(3-((9-chloro-10-fluoro-3-methoxy-8H-quinazolino[4,3-b]quinazoline-2-yl)oxy)propyl)morpholine di-p-toluenesulfonate] | 52.3 | 99.5 | 21.5 | 98.8 | 10.4 | 22.5 | 58.7 | 73.4 | 56.3 | 77.5 | 20.7 | 52.2 | 27.1 | 48.7 | 42 | 99.8 | inhibition at 10 µM [9]: 30.7%; inhibition at 100 µM [9]: 97.6% |
|  |  |  |  | COc1cc2c(cc1OCCCN1CCNCC1)C1=Nc3cccc(F)c3CN1C=N2 [Compound V-25, 9-fluoro-3-methoxy-2-(3-(piperazinyl-1-yl)propoxy)-8H-quinazolino[4,3-b]quinazoline] | 33.5 | 79.2 | 44.2 | 88.6 | 47 | 79.3 | 44.1 | 82.8 | 31.1 | 81.3 | 20.4 | 77 | 21.3 | 64.7 | 19 | 21.9 | inhibition at 10 µM [9]: 53.4%; inhibition at 100 µM [9]: 64.4% |
|  |  |  |  | C#Cc1cccc2c1CN1C=Nc3cc(OC)c(OCCCN4CCOCC4)cc3C1=N2 [Compound V-26, 4-(3-((9-ethynyl-3-methoxy-8H-quinazolino[4,3-b]quinazoline-2-yl)oxy)propyl)morpholine] | 32.1 | 81.4 | 40.7 | 76.6 | 27.7 | 93.6 | 4.29 | 11.7 | 44.6 | 85.4 | 38 | 71.4 | 28.4 | 89.5 | 32.1 | 72.4 | inhibition at 10 µM [9]: 5.86%; inhibition at 100 µM [9]: 30.3% |
|  |  |  |  | COc1cc2c(cc1OCCCN1CCOCC1)C1=Nc3cccc(C#N)c3CN1C=N2 [Compound V-27, 3-methoxy-2-(3-morpholinylpropoxy)-8H-quinazolino[4,3-b]quinazoline-9-nitrile] | 34.5 | 84.8 | 41.8 | 99.8 | 39.8 | 80 | 22.4 | 62.2 | 24 | 75.4 | 12 | 79.7 | 2.44 | 67.3 | 65.6 | 95.9 | inhibition at 10 µM [9]: 25.2%; inhibition at 100 µM [9]: 84% |
| 11.2 | 78.9 | 35.2 | 86.5 | COc1cc2c(cc1OCCCN1CCOCC1)C1=Nc3cc(COS(C)(=O)=O)cc([N+](=O)[O-])c3CN1C=N2 [Compound V-29] |  |  |  |  |  |  |  |  |  |  |  |  |  |  |  |  |  |
| 46.3 | 79.6 | 27.8 | 82.1 | COc1cc2c(cc1OC)C1=Nc3ccc(F)c(Cl)c3CN1C=N2 [Compound V-30, 9-chloro-10-fluoro-2,3-dimethoxy-8H-quinazolino[4,3-b]quinazoline] |  |  |  |  |  |  |  |  |  |  |  |  |  |  |  |  |  |
| 17.8 | 92.6 | 21.6 | 72.6 | CS(=O)(=O)CCNCc1ccc(-c2ccc3c(c2)C2=Nc4ccc(F)c(Cl)c4CN2C=N3)o1 [Compound V-34, N-((5-(9-chloro-10-fluoro-8H-quinazolino[4,3-b]quinazoline-2-yl)furan-2-yl)methyl)-2-(methylsulfonyl)ethylamine] |  |  |  |  |  |  |  |  |  |  |  |  |  |  |  |  |  |
| 3.3 | 79.8 | 13.3 | 75.8 | C#Cc1cccc2c1CN1C=Nc3ccc(-c4ccc(CNCCS(C)(=O)=O)o4)cc3C1=N2 [Compound V-35, N-((5-(9-ethynyl-8H-quinazolino[4,3-b]quinazoline-2-yl)furan-2-yl)methyl)-2-(methylsulfonyl)ethylamine] |  |  |  |  |  |  |  |  |  |  |  |  |  |  |  |  |  |
| 52.6 | 97.9 | 55.6 | 87.9 | CS(=O)(=O)CCNCc1ccc(-c2ccc3c(c2)C2=Nc4cc(Cl)ccc4CN2C=N3)o1 [Compound V-36, N-((5-(11-chloro-8H-quinazolino[4,3-b]quinazoline-2-yl)furan-2-yl)methyl)-2-(methylsulfonyl)ethylamine] |  |  |  |  |  |  |  |  |  |  |  |  |  |  |  |  |  |

| SMILES | The inhibition ratio of the compound on Aurora B(%) (aurora kinase B; 40 μM) | The inhibition ratio of the compound on Aurora B(%) (aurora kinase B; 200 μM) | The inhibition ratio of the compound on EGFR(%) (EGFR tyrosine kinase; 40 μM) | The inhibition ratio of the compound on EGFR(%) (EGFR tyrosine kinase; 200 μM) | inhibition at 10 µM [1] [%] | inhibition at 100 µM [1] [%] | inhibition at 10 µM [2] [%] | inhibition at 100 µM [2] [%] | inhibition at 10 µM [3] [%] | inhibition at 100 µM [3] [%] | inhibition at 10 µM [4] [%] | inhibition at 100 µM [4] [%] | inhibition at 10 µM [5] [%] | inhibition at 100 µM [5] [%] | inhibition at 10 µM [6] [%] | inhibition at 100 µM [6] [%] | inhibition at 10 µM [7] [%] | inhibition at 100 µM [7] [%] | inhibition at 10 µM [8] [%] | inhibition at 100 µM [8] [%] | also measured |
| --- | --- | --- | --- | --- | --- | --- | --- | --- | --- | --- | --- | --- | --- | --- | --- | --- | --- | --- | --- | --- | --- |
| Cc1cc(Nc2cc(N3CCN(C)CC3)nc(Sc3ccc(NC(=O)C4CC4)cc3)n2)n[nH]1 [VX-680, reference compound] | 35.2 | 81.6 |  |  |  |  |  |  |  |  |  |  |  |  |  |  |  |  |  |  |  |
